Each structure is given as a SMILES string.

Assay type in all cases: biochemical
The target of one assay is T1, Aurora B kinase (Homo sapiens, UniProt Q96GD4).
T1 construct: purchased Cell signaling
The assay can be described thus: Aurora B kinase assay ([γ-33P]ATP, CHOCKtide substrate). As to conditions: for inhibition at 1 µM: 1.0 μM test compound. The method in brief:
(§1)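 Radiometric filter-binding format: 33P incorporation into CHOCKtide counted after acid stop and filtration. Reactions ran 30 min at 33 °C, Aurora A with 10 μM ATP, Aurora B with 40 μM ATP. IC50 taken as concentration giving half-maximal kinase inhibition.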

For the next assay, the target named is T2, Aurora A kinase (Homo sapiens, UniProt O14965).
T2 construct: purchased Upstate
T2 sequence (O14965 1-403): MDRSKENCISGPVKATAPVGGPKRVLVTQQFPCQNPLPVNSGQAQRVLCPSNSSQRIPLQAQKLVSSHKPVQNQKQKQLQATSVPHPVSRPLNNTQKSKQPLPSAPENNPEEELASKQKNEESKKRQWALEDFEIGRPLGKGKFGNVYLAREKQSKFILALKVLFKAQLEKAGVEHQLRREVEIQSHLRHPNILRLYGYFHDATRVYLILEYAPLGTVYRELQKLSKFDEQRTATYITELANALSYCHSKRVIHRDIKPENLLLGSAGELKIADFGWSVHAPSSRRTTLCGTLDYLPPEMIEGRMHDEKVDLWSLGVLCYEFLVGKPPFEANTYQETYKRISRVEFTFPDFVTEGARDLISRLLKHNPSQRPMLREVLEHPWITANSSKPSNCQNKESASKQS
Put plainly: Aurora A kinase assay ([γ-33P]ATP, CHOCKtide substrate). Particulars: for inhibition at 1 µM: 1.0 μM test compound. Put shortly: as §1

A further assay has as its target T3, PDGFR-β kinase (Homo sapiens, UniProt P09619).
T3 construct: recombinant N-terminal 6×His-tagged PDGFR-β kinase domain construct expressed by baculovirus; 6xHis (N); made in house
The assay can be described thus: PDGFR-β kinase assay (33P incorporation into Poly(Glu-Tyr)). As to conditions: 500 nM test compound. How it is done: Inhibition of PDGFR-β kinase activity by compounds disclosed herein was quantified by measuring the amount of [^33P] incorporated into the substrate in the presence of a test compound. Briefly, a reaction mixture of 25 μL final volume containing 55 ng of PDGFR-β kinase (obtained by purifying recombinant N-terminal 6×His-tagged PDGFR-β kinase domain construct expressed by baculovirus), 2.5 μg of the substrate (Poly (Glu-Tyr, 4:1, Sigma)), kinase reaction buffer (20 mM MOPS pH 7.0, 1 mM EDTA, 5% glycerol, 0.01% Brij-35, 0.1% β-mercaptoethanol, 1 mg/mL BSA, 2 mM MnCl2, 30 μM ATP, 0.1 μCi per well [^33P]-γ-ATP (2,500-3,000 Ci/mmol)), and a test compound (500 nM, diluted with 4% DMSO) or DMSO (as the control) was incubated at 30° C. for 30 minutes. The reaction was stopped by adding 5 μL of 3% phosphoric acid solution. The resultant reaction solution was then harvested onto a filter plate (UniFilter-96 GF/B, PerkinElmer), washed 20 times for 5 min with d.d. H2O, and followed by the addition of 30 μL of MicroScint™-20 Cocktail (PerkinElmer). The plate was then sealed and counted using a TopCount scintillation detector (PerkinElmer). The percentage of inhibition rate of the test compound was calculated by dividing the retained radioactivity of the test sample with the retained radioactivity of the control sample and shown in Table 3.

For another assay, the target named is T4, c-Met kinase (Homo sapiens, UniProt P08581).
T4 construct: recombinant N-terminal 6×His-tagged c-Met kinase domain construct expressed from baculovirus; 6xHis (N); made in house
T4 sequence (P08581 1078-1345 limits assumed): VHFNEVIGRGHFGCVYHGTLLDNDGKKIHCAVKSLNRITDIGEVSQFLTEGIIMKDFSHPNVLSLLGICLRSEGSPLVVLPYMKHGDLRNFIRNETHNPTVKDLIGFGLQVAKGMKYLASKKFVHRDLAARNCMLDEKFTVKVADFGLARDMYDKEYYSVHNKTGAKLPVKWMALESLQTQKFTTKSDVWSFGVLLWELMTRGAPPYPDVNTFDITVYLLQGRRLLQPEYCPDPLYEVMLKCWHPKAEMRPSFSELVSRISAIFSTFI
The assay can be described thus: c-Met kinase assay (33P incorporation into Poly(Glu-Tyr)). Particulars: 500 nM test compound. The method in brief:
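Single-concentration test (500 nM compound) at 30° C for 30 min, pH 7.0 MOPS buffer with 100 μM ATP and [33P]-γ-ATP. Enzyme was baculovirus-expressed 6×His c-Met kinase domain (5 ng), substrate Poly(Glu-Tyr) 4:1. Inhibition percentage derived from filter-bound counts relative to DMSO control.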

T1 sequence (Q96GD4 whole entry): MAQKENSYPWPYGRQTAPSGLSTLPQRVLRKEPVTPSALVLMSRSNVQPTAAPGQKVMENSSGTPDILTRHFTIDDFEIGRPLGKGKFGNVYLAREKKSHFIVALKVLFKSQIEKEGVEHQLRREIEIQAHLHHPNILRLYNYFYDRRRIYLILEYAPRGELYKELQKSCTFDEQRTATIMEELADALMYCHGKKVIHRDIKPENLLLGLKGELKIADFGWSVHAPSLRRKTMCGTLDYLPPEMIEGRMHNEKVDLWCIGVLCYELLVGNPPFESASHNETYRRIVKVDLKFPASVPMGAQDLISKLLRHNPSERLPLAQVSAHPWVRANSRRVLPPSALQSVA
T3 sequence (P09619 600-962 limits assumed): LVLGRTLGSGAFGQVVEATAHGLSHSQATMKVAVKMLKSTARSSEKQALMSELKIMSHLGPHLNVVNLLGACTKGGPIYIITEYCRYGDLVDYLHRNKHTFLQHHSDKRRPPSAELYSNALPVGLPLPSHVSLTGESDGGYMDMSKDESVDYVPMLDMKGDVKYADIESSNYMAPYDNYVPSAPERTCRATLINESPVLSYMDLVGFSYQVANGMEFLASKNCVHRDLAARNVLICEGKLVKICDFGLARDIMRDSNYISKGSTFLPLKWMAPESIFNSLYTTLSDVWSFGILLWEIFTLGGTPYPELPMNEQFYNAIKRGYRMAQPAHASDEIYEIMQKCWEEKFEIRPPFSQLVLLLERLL

For the compound `CCOC(=O)CCc1c(/C=C2\C(=O)Nc3ccc(NS(=O)(=O)c4ccc(F)cc4)cc32)[nH]c2c1C(=O)CCC2` [DCB-70144, (Z)-ethyl 3-(2-((5-(4-fluorophenylsulfonamido)-2-oxoindolin-3-ylidene)methyl)-4-oxo-4,5,6,7-tetrahydro-1H-indol-3-yl)propanoate], the IC50 (commonly the concentration that gives 50% inhibition) is 448 nM against Aurora B kinase and 270 nM on Aurora A kinase. For the same compound, the inhibition (commonly the drop in the measured response relative to a control, in per cent) at 1 µM worked out at 61.9% against Aurora B kinase and 82% against Aurora A kinase. For the same compound, the inhibition at 0.5 µM is 2.4% against PDGFR-β kinase and 14.4% against c-Met kinase.

For `O=C(O)CCc1c(/C=C2\C(=O)Nc3ccc(NS(=O)(=O)c4ccc(F)cc4)cc32)[nH]c2c1C(=O)CCC2` [DCB-70145, (Z)-3-(2-((5-(4-fluorophenylsulfonamido)-2-oxoindolin-3-ylidene)methyl)-4-oxo-4,5,6,7-tetrahydro-1H-indol-3-yl)propanoic acid], the IC50 against Aurora B kinase is 449 nM; against Aurora A kinase it was 45.7 nM. In addition, the inhibition at 1 µM against Aurora B kinase was determined as 75.2%; at Aurora A kinase, 90.3%. The inhibition at 0.5 µM was 14.5% at PDGFR-β kinase and 12.5% on c-Met kinase.

As to `CCOC(=O)CCc1c(/C=C2\C(=O)Nc3ccc([N+](=O)[O-])cc32)[nH]c2c1C(=O)CCC2` [DCB-70062, (Z)-5-nitro-3-((3-(3-ethoxy-3-oxopropyl)-4-oxo-4,5,6,7-tetrahydro-1H-indol-2-yl)methylene)indolin-2-one], the inhibition at 1 µM was -4.1% against Aurora B kinase and -7.2% on Aurora A kinase. Also, the inhibition at 0.5 µM turned out to be 67.5% on PDGFR-β kinase and 34.1% against c-Met kinase.

Regarding `O=C(O)CCc1c(C=C2C(=S)Nc3cc(Br)ccc32)[nH]c2c1C(=O)CCC2` [DCB-70086, 6-bromo-3-((3-carboxyethyl-4-oxo-4,5,6,7-tetrahydro-1H-indol-2-yl)methylene)indolin-2-thione], the inhibition at 1 µM was found to be 17.8% against Aurora B kinase and 5.8% against Aurora A kinase. Also, the inhibition at 0.5 µM against PDGFR-β kinase turned out to be 12.8%; on c-Met kinase it was 21.6%.

Regarding `CCOC(=O)CCc1c(/C=C2\C(=O)Nc3cc(-c4ccc(O)c(OC)c4)ccc32)[nH]c2c1C(=O)CCC2` [DCB-70081, (Z)-6-(4-hydroxy-3-methoxyphenyl)-3-((3-(3-ethoxy-3-oxopropyl)-4-oxo-4,5,6,7-tetrahydro-1H-indol-2-yl)methylene)indolin-2-one], the inhibition at 1 µM against Aurora B kinase came out at 30.6%; on Aurora A kinase, 27.7%. The values for the inhibition at 0.5 µM against PDGFR-β kinase and against c-Met kinase were 25.2% and 25.6%, respectively.

Turning to `CCOC(=O)CCc1c(/C=C2\C(=O)Nc3ccc(-c4ccc(OC)c(OC)c4)cc32)[nH]c2c1C(=O)CCC2` [DCB-70067, (Z)-5-(3,4-dimethoxyphenyl)-3-((3-(3-ethoxy-3-oxopropyl)-4-oxo-4,5,6,7-tetrahydro-1H-indol-2-yl)methylene)indolin-2-one], the values for the inhibition at 1 µM against Aurora B kinase and against Aurora A kinase were -1.3% and 5.2%, respectively. In addition, the results for the inhibition at 0.5 µM on PDGFR-β kinase and at c-Met kinase were 22% and 17%, respectively.

For `CCOC(=O)CCc1c(/C=C2\C(=O)Nc3ccc(S(=O)(=O)NC)cc32)[nH]c2c1C(=O)CCC2` [DCB-70064, (Z)-5-(N-methylsulfamoyl)-3-((3-(3-ethoxy-3-oxopropyl)-4-oxo-4,5,6,7-tetrahydro-1H-indol-2-yl)methylene)indolin-2-one], the values for the inhibition at 1 µM against Aurora B kinase and against Aurora A kinase were 22.2% and 78.6%, respectively. This compound returned an IC50 against Aurora A kinase of 313 nM. In addition, the figures for the inhibition at 0.5 µM against PDGFR-β kinase and against c-Met kinase were 56.7% and 48.1%, respectively.

On to `CCOC(=O)CCc1c(/C=C2\C(=O)Nc3cc(-c4cc5ccccc5s4)ccc32)[nH]c2c1C(=O)CCC2` [DCB-70079, (Z)-6-(benzo[b]thiophen-2-yl)-3-((3-(3-ethoxy-3-oxopropyl)-4-oxo-4,5,6,7-tetrahydro-1H-indol-2-yl)methylene)indolin-2-one], for which the inhibition at 1 µM stood at 16% against Aurora B kinase and 8.8% against Aurora A kinase. The results for the inhibition at 0.5 µM against PDGFR-β kinase and against c-Met kinase were 9.6% and 21.4%, respectively.

With `O=C(O)CCc1c(/C=C2\C(=O)Nc3ccccc32)[nH]c2c1C(=O)CCC2` [DCB-70052, (Z)-3-((3-carboxyethyl-4-oxo-4,5,6,7-tetrahydro-1H-indol-2-yl)methylene)indolin-2-one], the inhibition at 1 µM worked out at 13% on Aurora B kinase and 74.8% against Aurora A kinase. For the same compound, on Aurora A kinase, half-maximal inhibition (IC50) was put at 209 nM. Also, the inhibition at 0.5 µM at PDGFR-β kinase amounted to 54.8%; on c-Met kinase, 14.3%.

As to `COc1cc(-c2ccc3c(c2)NC(=O)/C3=C\c2[nH]c3c(c2CCC(=O)O)C(=O)CCC3)ccc1O` [DCB-70082, (Z)-6-(4-hydroxy-3-methoxyphenyl)-3-((3-carboxyethyl-4-oxo-4,5,6,7-tetrahydro-1H-indol-2-yl)methylene)indolin-2-one], the IC50 at Aurora B kinase is 2240 nM; against Aurora A kinase it was 224 nM. For the same compound, the figures for the inhibition at 1 µM against Aurora B kinase and on Aurora A kinase were 47.1% and 81.7%, respectively. Moreover, the inhibition at 0.5 µM on PDGFR-β kinase is 41.4%; at c-Met kinase, 27.3%.

Turning to `O=C(O)CCc1c(/C=C2\C(=O)Nc3ccc(S(=O)(=O)N4CCc5ccccc54)cc32)[nH]c2c1C(=O)CCC2` [DCB-70106, (Z)-5-(indolin-1-ylsulfonyl)-3-((3-carboxyethyl-4-oxo-4,5,6,7-tetrahydro-1H-indol-2-yl)methylene)indolin-2-one], the IC50 came to 292 nM at Aurora B kinase and 8.1 nM on Aurora A kinase. Besides, the inhibition at 1 µM on Aurora B kinase is 70.6%; against Aurora A kinase, 99%. Also, the results for the inhibition at 0.5 µM on PDGFR-β kinase and against c-Met kinase were 36.3% and 59.6%, respectively.

As for `CCOC(=O)CCc1c(/C=C2\C(=O)Nc3cc(Br)ccc32)[nH]c2c1C(=O)CCC2` [DCB-70130, (Z)-ethyl 3-(2-((6-bromo-2-oxoindolin-3-ylidene)methyl)-4-oxo-4,5,6,7-tetrahydro-1H-indol-3-yl)propanoate], the values for the inhibition at 1 µM against Aurora B kinase and on Aurora A kinase were 12.2% and 22.7%, respectively. The inhibition at 0.5 µM at PDGFR-β kinase worked out at 84.9%; against c-Met kinase it was 4.2%.

Turning to `O=C(O)CCc1c(C=C2C(=S)Nc3ccccc32)[nH]c2c1C(=O)CCC2` [DCB-70084, 3-((3-carboxyethyl-4-oxo-4,5,6,7-tetrahydro-1H-indol-2-yl)methylene)indolin-2-thione], the inhibition at 1 µM against Aurora B kinase is 17.9%; on Aurora A kinase, 10.9%. Moreover, the inhibition at 0.5 µM against PDGFR-β kinase is 6%; against c-Met kinase, 11.5%.

As to `CNS(=O)(=O)c1ccc2c(c1)/C(=C/c1[nH]c3c(c1CCC(=O)O)C(=O)CCC3)C(=O)N2` [DCB-70065, (Z)-5-(N-methylsulfamoyl)-3-((3-carboxyethyl-4-oxo-4,5,6,7-tetrahydro-1H-indol-2-yl)methylene)indolin-2-one], the inhibition at 1 µM against Aurora B kinase came to 25.6%; at Aurora A kinase it was 97.3%. In addition, on Aurora A kinase, the IC50 was 30.8 nM. The inhibition at 0.5 µM at PDGFR-β kinase stood at 17.3%; at c-Met kinase it was 29.1%.

On to `Cc1ccc(NC(=O)Nc2ccc3c(c2)/C(=C/c2[nH]c4c(c2CCC(=O)O)C(=O)CCC4)C(=O)N3)cc1` [DCB-70093, (Z)-5-(3-p-tolylureido)-3-((3-carboxyethyl-4-oxo-4,5,6,7-tetrahydro-1H-indol-2-yl)methylene)indolin-2-one], for which the inhibition at 1 µM against Aurora B kinase worked out at 14.7%; at Aurora A kinase it was 70.5%. The inhibition at 0.5 µM stood at 40% against PDGFR-β kinase and 28.2% against c-Met kinase.

In the case of `CCOC(=O)CCc1c(/C=C2\C(=O)Nc3ccc(Br)cc32)[nH]c2c1C(=O)CCC2` [DCB-70056, (Z)-5-bromo-3-((3-(3-ethoxy-3-oxopropyl)-4-oxo-4,5,6,7-tetrahydro-1H-indol-2-yl)methylene)indolin-2-one], the inhibition at 1 µM on Aurora B kinase was determined as 7.2%; at Aurora A kinase, 55%. The inhibition at 0.5 µM against PDGFR-β kinase was 84.1%; against c-Met kinase, 30.9%.

The record behind these values is US7897602B2, “Indolinone compounds as kinase inhibitors” (Development Center for Biotechnology, priority 2009, dated 2011).
